Measured values published in patent US20250228916A1, “A METHOD OF TREATING OR PREVENTING SEPSIS” (priority 2016, published 2025).

What was measured:
human endothelial cells [1] = assay: Transwell permeability assay, S. aureus infected human endothelial cells; assay type: cell-based; settings: cilengitide at 0.05 μM for 1 hr; FIG. 10
Procedure: (§1) Endothelial barrier permeability was assessed using a transwell apparatus with the slight modifications. Sheared HAoECs were trypsinized and seeded into hanging inserts, were placed in a 6 well plate. To the lower (abluminal) chamber of the plate 4 ml of cell media was added and 2 ml of media containing 200,000 cells/ml was added to the top (luminal) chamber. The wells plates were incubated at 37° C. in a 5% CO2 and humidified atmosphere overnight to form a confluent monolayer. Media in the abluminal chamber was changed to antibiotic free media while simultaneously the media in the luminal chamber was removed and washed with antibiotic free media. Cells were infected with S. aureus Newman WT and S. aureus ΔClfA in 2 ml of antibiotic free media to infect the cells at a MOI of 400 for 3 hrs at 37° C. FITC dextran (40 kDa) was added to the top chamber for a final concentration of 250 μg/ml in 2 ml. Media samples from the abluminal chamber were taken 24 hrs after infection measured on a plate reader at fluorescence Ex/Em 485/535 nm. The experiment was repeated to test αVβ3 blocking by cilengitide at 0.05 μM for 1 hr between the TNFα exposure and the addition of 4 mg/ml fibrinogen in place of plasma for 1 hr. This experiment was repeated using E. coli and E. coli AompA instead of S. aureus Newman WT or Newman ΔClfA.

human endothelial cells [2] = assay: Proliferation assay, S. aureus infected human endothelial cells; assay type: cell-based; settings: 0.05 μM cilengitide, 24 hrs; FIG. 8H
Procedure: Sheared HAoECs were seeded into a six well plate at 150,000 cells per well in 1.6 ml media containing 10 ng/ml of TNFα. The cells were incubated for 4 hrs at 37° C. in a 5% CO2. […] The media was removed and the well washed with antibiotic free media. To each well 1.6 ml of antibiotic free media was added containing S. aureus Newman or S. aureus ΔClfA for a MOI of 400. The cells were incubated at 37° C. in for 24 hrs. Following incubation the media was removed from the cells and they were washed 4 times with warm PBS. The cells were detached from the 6 well plate by trypsinization counted on a haemocytometer.

endothelial cells [3] = assay: VE-cadherin immunostaining of tight junction formation after E. coli infection; assay type: cell-based, human; settings: pre-treating the endothelial cells with cilengitide; FIG. 17E
purified receptor a Vb3 = purified receptor a Vb3 (Homo sapiens, UniProt P05106+P06756); assay: L. lactis ClfA binding to purified receptor αVβ3; settings: pretreating the purified receptor with cilengitide; FIG. 6C
human endothelial cells [4] = assay: MTT cytotoxicity assay; assay type: cell-based; settings: 0.05 μM cilengitide, FIG. 12
Procedure: Cell metabolic activity was measured using a MTT ((3-(4,5-dimethylthiazol-2-yl)-2,5-diphenyltetrazolium bromide) assay kit. Sheared HAoECs were seeded into a clear 96 well microtitre plate at a density of 2.5×10^4 cells/well in 100 μl in media containing 10 ng/ml TNFα. The cells were incubated for 4 hrs at 37° C. Media was removed from the wells after 4 hrs and replaced with 100 μl of fresh cell media, cell media containing a vehicle or cell media containing 0.05 μM cilengitide. The plate was incubated for a further one hour before the media was changed for 100 μl of fresh cell media with 10 μl of 12 mM MTT stock and the plate 10 incubated at 37° C. for 4 hrs. All but 25 μl of liquid was removed from each well and 10 μl of DMSO was added per well. The plate was incubated for 10 minutes at 37° C. before being read on a plate reader for absorbance at 570 nm.

[5] = tested on: αVβ3 on human endothelial cells; assay: Binding assay: L. lactis expressing ClfA binding to sheared human endothelial cells; assay type: cell-based; settings: pretreatment of the human endothelial cells with cilengitide; FIG. 6B
Procedure: (§2) Sheared HAoECs were seeded into wells of a 96 well tissue culture plate at a density of 2.5×10^4 cells per well in a volume of 100 μl. Experiments were carried out either in the presence or absence of TNFα at 10 ng/ml. The HAoECs were incubated at 37° C. 5% CO2 for 4 hours to facilitate attachment and cell-cell contact on the plate. Following the 4 hr incubation the media was removed and 100 μl of human platelet poor plasma (PPP), 4 mg/ml fibrinogen or 1 mg/ml IgG was added to each well and incubated for 1 hr at 37° C. 5% CO2. The wells were washed with PBS and the wells were blocked with 100 μl of 1% […] for 1 hr at 37° C. Finally the wells were washed with 100 μl of TBS and 100 μl of SYBR green II stained bacteria was added per well at a MOI of 400. The cells were incubated for a further 1 hr at 37° C. 5% CO2 and then read on a fluorescent plate reader (1420 Victor V3, Perkin Elmer, Dublin, Ireland) at 485/535 nm. The bacteria were then removed gently by pipette and the plate washed with 100 μl TBS/well. The plate was then read again at 485/535 nm. Adhered bacteria were calculated as a percent remaining from the initial reading multiplied by the number of bacteria added.

human endothelial cells [6] = assay: Apoptosis assay (Annexin V), S. aureus infected human endothelial cells; assay type: cell-based; settings: cilengitide at 0.05 µM for 1 hr; FIG. 9B
Procedure: (§3) Sheared HAoECs in a 6 well plate were exposed to 1 ng of TNFα per 25,000 endothelial cells and were incubated for 4 hrs at 37° C. The TNFα containing media was removed and 1 ml of 4 mg/ml Fg in media at 37° C. for 1 hr. Media was removed and replaced with 1 ml of antibiotic free media containing S. aureus Newman WT or Newman ΔClfA to a MOI of 400 in a final volume per well of 2 ml. The cells were incubated for 24 hrs at 37° C. Following incubation the media was removed and the wells washed 3 times with warm PBS. Cells were detached by trypsinization and pelleted. The cell pellet was washed in ice cold (4° C.) PBS before being stained with a TACS™ Annexin V Apoptosis Kit. The cells were analysed on a flow cytometer (BD FACSCanto™ II Flow Cytometer). The experiment was repeated to test αVβ3 blocking by cilengitide at 0.05 µM for 1 hr between the TNFα exposure and the addition of 4 mg/ml fibrinogen for 1 hr. This experiment was repeated using E. coli and E. coli AompA instead of S. aureus Newman WT or Newman ΔClfA.

[7] = tested on: αVβ3 integrin on endothelial cells; assay: E. coli binding to endothelial cells, static assay; assay type: cell-based, human; settings: cilengitide 0.05 μM; FIG. 14A
Procedure: as §2

[8] = tested on: vascular endothelial αVβ3 integrin receptor; assay: Adhesion of gram positive and gram negative bacteria to vascular endothelial cells; assay type: cell-based, human; settings: blocking the αVβ3 receptor
Procedure: as §2

endothelial cells [9] = assay: Transwell permeability assay, E. coli infected endothelial cells; assay type: cell-based, human; settings: preincubating the endothelial cells with cilengitide; FIG. 16
Procedure: as §1

endothelial cells [10] = assay: Apoptosis assay (Annexin V flow cytometry), E. coli infected endothelial cells
Procedure: as §3

[11] = tested on: αVβ3 integrin on sheared endothelial cells; assay: E. coli binding to sheared endothelial cells under perfusion; assay type: cell-based, human; settings: cilengitide 0.05 μM; E. coli perfused at 10 dyns for 5 minutes; FIG. 14B
[12] = tested on: S. aureus adhesion to murine endothelial cells; assay: In vivo venous mesenteric perfusion model of bacterial adhesion; settings: cilengitide administered intravenously; FIG. 7C, 7E
[13] = molecular target: vascular endothelial αVβ3 integrin on sheared human aortic endothelial cells (human)

Chain of purified receptor a Vb3 (P06756 31-889 limits assumed): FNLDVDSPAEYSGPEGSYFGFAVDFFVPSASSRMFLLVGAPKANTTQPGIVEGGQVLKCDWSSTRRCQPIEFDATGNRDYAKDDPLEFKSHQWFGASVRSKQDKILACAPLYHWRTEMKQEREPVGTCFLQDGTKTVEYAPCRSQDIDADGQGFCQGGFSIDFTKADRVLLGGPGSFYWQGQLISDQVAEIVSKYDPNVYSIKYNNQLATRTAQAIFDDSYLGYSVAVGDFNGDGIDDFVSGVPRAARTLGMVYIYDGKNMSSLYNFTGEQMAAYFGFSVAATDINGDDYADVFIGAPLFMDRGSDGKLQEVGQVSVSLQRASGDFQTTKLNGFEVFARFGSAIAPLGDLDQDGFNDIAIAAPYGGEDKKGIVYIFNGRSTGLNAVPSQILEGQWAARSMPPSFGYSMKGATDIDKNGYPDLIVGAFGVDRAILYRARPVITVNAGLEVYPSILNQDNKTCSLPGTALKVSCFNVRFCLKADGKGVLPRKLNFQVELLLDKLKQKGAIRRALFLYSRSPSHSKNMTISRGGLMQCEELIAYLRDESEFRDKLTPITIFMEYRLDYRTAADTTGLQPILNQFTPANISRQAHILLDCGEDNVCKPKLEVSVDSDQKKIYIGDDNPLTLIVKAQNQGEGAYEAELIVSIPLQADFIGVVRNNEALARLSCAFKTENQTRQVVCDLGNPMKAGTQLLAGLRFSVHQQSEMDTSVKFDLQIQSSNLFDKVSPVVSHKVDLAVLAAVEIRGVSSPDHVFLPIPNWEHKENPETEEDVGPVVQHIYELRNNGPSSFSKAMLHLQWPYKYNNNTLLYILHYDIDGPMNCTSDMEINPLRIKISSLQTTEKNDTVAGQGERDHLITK
Chain of purified receptor a Vb3 (P06756 891-1048 partner limits assumed): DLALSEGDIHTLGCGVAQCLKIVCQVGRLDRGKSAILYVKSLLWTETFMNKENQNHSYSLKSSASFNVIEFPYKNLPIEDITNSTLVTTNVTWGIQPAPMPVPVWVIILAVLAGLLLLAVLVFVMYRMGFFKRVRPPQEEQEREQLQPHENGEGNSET
Chain of purified receptor a Vb3 (P05106 27-788): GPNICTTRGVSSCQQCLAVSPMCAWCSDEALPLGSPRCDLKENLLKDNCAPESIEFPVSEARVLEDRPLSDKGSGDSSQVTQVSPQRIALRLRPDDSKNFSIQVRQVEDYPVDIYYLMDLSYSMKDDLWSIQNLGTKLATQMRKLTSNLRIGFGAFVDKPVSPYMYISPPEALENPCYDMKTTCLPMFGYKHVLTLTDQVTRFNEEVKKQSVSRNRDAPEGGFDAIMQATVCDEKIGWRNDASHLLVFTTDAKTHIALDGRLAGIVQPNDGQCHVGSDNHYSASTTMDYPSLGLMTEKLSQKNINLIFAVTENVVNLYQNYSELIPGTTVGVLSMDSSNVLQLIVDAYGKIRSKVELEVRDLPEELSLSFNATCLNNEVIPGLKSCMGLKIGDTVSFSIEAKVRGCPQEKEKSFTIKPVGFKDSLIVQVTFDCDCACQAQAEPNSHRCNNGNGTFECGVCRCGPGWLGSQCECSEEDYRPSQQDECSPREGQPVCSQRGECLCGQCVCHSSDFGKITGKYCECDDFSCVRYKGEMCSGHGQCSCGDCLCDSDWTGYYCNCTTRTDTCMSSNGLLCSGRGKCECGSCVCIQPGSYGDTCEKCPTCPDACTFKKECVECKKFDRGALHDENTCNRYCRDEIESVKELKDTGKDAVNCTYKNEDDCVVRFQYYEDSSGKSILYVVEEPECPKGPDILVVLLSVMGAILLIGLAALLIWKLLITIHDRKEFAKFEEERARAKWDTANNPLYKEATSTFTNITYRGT

Row | Compound | permeability of the human endothelial barrier following S. aureus infection (human endothelial cells [1]) | human endothelial cell proliferation after S. aureus infection (human endothelial cells [2]) | VE-cadherin tight junction formation following E. coli infection (endothelial cells [3]) | L. lactis ClfA binding to purified receptor αVβ3 (purified receptor a Vb3) | toxicity in human endothelial cells (human endothelial cells [4]) | binding of L. lactis expressing ClfA to human endothelial cells [5] | S. aureus induced apoptosis of human endothelial cells (human endothelial cells [6]) | E. coli binding to endothelial cells, static assay [7] | adhesion of both gram positive and gram negative bacteria to vascular endothelial cells [8] | E. coli induced permeability of endothelial cells (endothelial cells [9]) | viability of endothelial cells (endothelial cells [10]; cilengitide alone, no infection) | E. coli induced apoptosis of endothelial cells (endothelial cells [10]; preincubation of endothelial cells with cilengitide, Annexin V, FIG. 17F) | E. coli binding to sheared endothelial cells, perfused [11] | S. aureus binding to murine endothelial cells [12] | endothelial cell permeability (% increase in permeability) [13]
1 | CC(C)[C@H]1C(=O)N[C@@H](CCCN=C(N)N)C(=O)NCC(=O)N[C@@H](CC(=O)O)C(=O)N[C@H](Cc2ccccc2)C(=O)N1C [cilengitide, cyclo(-RGDf(NMe)V-)] | significantly reduced | significantly recovered | recovery of tight junction formation | significantly inhibited | does not cause toxicity | significantly reduced | significantly reduced | significantly inhibited | dose-dependent reduction in adhesion | significantly reduces permeability | failed to affect | significant reduction | significantly inhibited | failed to significantly bind | 
2 | Escherichia coli outer membrane protein A |  |  |  |  |  |  |  |  |  |  |  |  |  |  | 30
